According to US4075341A, “2-Substituted phenyl-5-triazols [5,1-a] isoquinoline compounds” (Gruppo Lepetit S.p.A., priority 1975, dated 1978):
Read-outs that look alike come from different tables or passages of the source.

Experiments:
[1] = system: female Syrian golden hamsters; assay: anti-fertility activity in pregnant female Syrian golden hamsters; format: in vivo; parameters: key to anti-fertility activity (active according to criteria): active: a reduction of live fetuses in at least 60% of the treated animals and the presence of implantation sites proves the animal to have been pregnant; details: for anti-fertility activity (active according to criteria): 10 mg./kg. s.c. daily for 5 days, days 4-8 of pregnancy, autopsy day 14; for ED50: Mesocricetus auratus, sc, read-out: ED50 (dose showing 100% effectiveness in 50% of the treated animals)
Procedure: Representative experiments for assessing anti-fertility activity are carried out with female Syrian golden hamsters weighing 100 to 130 g. The animals are mated and the presence of sperm in the vagina is taken as evidence of mating. The day sperm is detected is considered day one of pregnancy, since in our laboratories and those of other investigators 90 to 100% of animals that mate as evidenced by vaginal sperm are pregnant. Pregnancy is later confirmed at the time of autopsy by presence of fetuses or implantation sites in the uterus. Even if an animal aborts the fetus, implantation scars still remain as evidence that the animal had been pregnant. Test compounds dissolved or suspended in sesame oil are administered subcutaneously in doses of 10 mg./kg. daily for 5 days beginning on day 4 of pregnancy (days 4-8). The animals are autopsied on day 14 of pregnancy and the uteri are examined for evidence of pregnancy (implantation sites, fetal resorptions or live fetuses), hemorrage, and evidence of abnormalities of the uterus, placenta or fetuses. A compound is considered to be active if there is a reduction of live fetuses in at least 60% of the treated animals and the presence of implantation sites proves the animal to have been pregnant. […] The compounds are then studied for dose-activity relationship and toxicity or other biological activities. Compounds that show 100% effectiveness (absence of live fetuses in 100% of animals) with minimal side effects or toxicity are studied in depth.
The ED50 values identify the dose levels which show 100% effectiveness (defined as above) in 50% of the treated animals.

female beagle dogs = assay: anti-fertility activity in pregnant female beagle dogs; format: in vivo; details: Canis lupus familiaris, sc; single subcutaneous dose on 20th day of pregnancy, opened on 35th day; read-out: Minimal effective doses (100% effectiveness, absence of live fetuses in 100% of the animals)
Excerpt: In performing experiments with dogs, female beagle dogs weighing approximately 10 kg. are mated and on the 20th day of pregnancy the animals are given single subcutaneous doses of the compounds that were active in both the rat and the hamster. On the 35th day of pregnancy, the animals are surgically opened and the uteri are examined for presence of fetuses, placental tissue etc. Following Table III reports the minimal doses of representative compounds showing a 100% effectiveness (absence of live fetuses in 100% of the animals).

[2] = acute toxicity LD50 in mice; details: mouse, in vivo, ip; i.p. in mice
conditioned rats = assay: secondary conditioned avoidance response test (anti-anxiety effect); format: in vivo
Procedure: The CNS depressant properties were investigated according to the Irwin method, and in particular, the anti-anxiety effect was evaluated on the basis of the secondary conditioned avoidance response test. A specific anti-anxiety effect was evidenced by administering to conditioned rats doses of 15-60 mg./kg. i.p. of representative compounds of the invention.
The following table indicates the ratio of the rats which were deconditioned after administration of a predetermined amount of a representative compound: […]

[3] = system: carrageenin induced edema; assay: carrageenin test in rats (anti-inflammatory activity); format: in vivo; details: Rattus norvegicus, po; 100 mg./kg. p.o.
Excerpt: The anti-inflammatory activity of some inventive compounds was evidenced by means of the carrageenin test in rats.

[4] = Table I, 5,6-dihydro compounds, hamsters
[5] = Table II, 5,6-unsaturated compounds, similar experiments

Structure (SMILES) | anti-fertility activity (active according to criteria) [1] | ED50 [1, 4] | also measured
COc1cc(OC)cc(-c2nc3n(n2)CCc2ccccc2-3)c1 [Example 12, 2-(3,5-dimethoxyphenyl)-5,6-dihydro-s-triazolo[5,1-a]isoquinoline] | active |  | 
Cc1ccc(-c2nc3n(n2)CCc2ccccc2-3)cc1 [Example 4, 2-(p-toluyl)-5,6-dihydro-s-triazolo[5,1-a]isoquinoline, reference compound] |  | 2 mg/kg | 
CCOc1cccc(-c2nc3n(n2)CCc2ccccc2-3)c1 [Example 13, 2-(m-ethoxyphenyl)-5,6-dihydro-s-triazolo[5,1-a]isoquinoline] | active | 0.03 mg/kg | minimal effective dose (female beagle dogs): 6.25 mg/kg
c1ccc(-c2nc3n(n2)CCc2ccccc2-3)cc1 [Example 5, 2-phenyl-5,6-dihydro-s-triazolo[5,1-a]isoquinoline, reference compound] |  | 1 mg/kg | 
Fc1ccc(-c2nc3n(n2)CCc2ccccc2-3)cc1 [Example 28, 2-(p-fluorophenyl)-5,6-dihydro-s-triazolo[5,1-a]isoquinoline] | active | 0.1 mg/kg | 
CC(C)Oc1cccc(-c2nc3n(n2)CCc2ccccc2-3)c1 [Example 21, 2-(m-isopropoxyphenyl)-5,6-dihydro-s-triazolo[5,1-a]isoquinoline] | active | 0.25 mg/kg | 
N=C(NN1CCc2ccccc2C1=O)c1ccccc1 [2-Benzimidoylamino-3,4-dihydro-1 (2H)-isoquinolinone] |  |  | LD50 [2]: > 600 mg/kg; Deconditioned/treated (conditioned rats; dose 60 mg./kg. i.p.): 10/10
Nc1nc2n(n1)CCc1ccccc1-2 [Example 32] |  |  | LD50 [2]: > 600 mg/kg; Deconditioned/treated (conditioned rats; dose 30 mg./kg. i.p.): 6/10
c1ccc(-c2nc3c4ccccc4ccn3n2)cc1 [Example 59, 2-Phenyl-s-triazolo[5,1-a]isoquinoline, reference compound] |  |  | ED50 [1, 5]: 0.25 mg/kg
Cc1nc2n(n1)CCc1ccccc1-2 [Example 9, 2-methyl-5,6-dihydro-s-triazolo[5,1-a]isoquinoline, reference compound] |  | > 10 mg/kg | 
N=C(NN1CCc2ccccc2C1=O)c1cccc([N+](=O)[O-])c1 [2-(m-Nitrobenzimidoylamino)-3,4-dihydro-1-(2H) isoquinolinone] |  |  | LD50 [2]: > 600 mg/kg; Deconditioned/treated (conditioned rats; dose 30 mg./kg. i.p.): 6/10; Deconditioned/treated (conditioned rats; dose 60 mg./kg. i.p.): 10/10
COc1cccc(-c2nc3c4ccccc4ccn3n2)c1 [Example 58, 2-(m-Methoxyphenyl)-s-triazolo[5,1-a]isoquinoline] | active |  | ED50 [1, 5]: 0.1 mg/kg
CC(=O)Nc1nc2n(n1)CCc1ccccc1-2 [Example 35, 2-Acetamido-5,6-dihydro-s-triazolo[5,1-a]isoquinoline] |  |  | LD50 [2]: > 400 mg/kg; Deconditioned/treated (conditioned rats; dose 60 mg./kg. i.p.): 7/10
NC(=O)Nc1nc2n(n1)CCc1ccccc1-2 [Example 54, 2-Ureido-5,6-dihydro-s-triazolo[5,1-a]isoquinoline] |  |  | inhibition at 100 mg/kg [3]: ~35%
CCOC(=O)NC(=S)Nc1nc2n(n1)CCc1ccccc1-2 [2-carbethoxythioureido-5,6-dihydro-s-triazole-[5,1-a]isoquinoline] |  |  | LD50 [2]: > 600 mg/kg; Deconditioned/treated (conditioned rats; dose 60 mg./kg. i.p.): 7/10
Clc1ccc(-c2nc3c4ccccc4ccn3n2)cc1 [Example 61, 2-(p-Chlorophenyl)-s-triazolo[5,1-a]isoquinoline] | active |  | ED50 [1, 5]: 0.08 mg/kg
CCCCCOc1cccc(-c2nc3n(n2)CCc2ccccc2-3)c1 [Example 22, 2-(m-pentyloxyphenyl)-5,6-dihydro-s-triazolo[5,1-a]isoquinoline] | active |  | 
CCCCOc1cccc(-c2nc3n(n2)CCc2ccccc2-3)c1 [Example 31, 2-(m-butoxyphenyl)-5,6-dihydro-s-triazolo[5,1-a]isoquinoline] | active |  | 

Structure (SMILES) | anti-fertility activity (active according to criteria) [1] | ED50 [1, 4] | also measured
CC(=O)N(C(C)=O)c1nc2n(n1)CCc1ccccc1-2 [Example 34, 2-Diacetylamino-5,6-dihydro-s-triazolo[5,1-a]isoquinoline] |  |  | LD50 [2]: > 600 mg/kg; Deconditioned/treated (conditioned rats; dose 60 mg./kg. i.p.): 6/9
c1cncc(-c2nc3n(n2)CCc2ccccc2-3)c1 [Example 10, 2-(3-pyridyl)-5,6-dihydro-s-triazolo[5,1-a]isoquinoline] |  |  | LD50 [2]: > 400 mg/kg; Deconditioned/treated (conditioned rats; dose 15 mg./kg. i.p.): 10/10
Clc1ccc(-c2nc3n(n2)CCc2ccccc2-3)cc1 [Example 8, 2-(p-chlorophenyl)-5,6-dihydro-s-triazolo[5,1-a]isoquinoline] | active | 0.065 mg/kg | 
c1ccc(COc2cccc(-c3nc4n(n3)CCc3ccccc3-4)c2)cc1 [Example 15, 2-(m-benzyloxyphenyl)-5,6-dihydro-s-triazolo[5,1-a]isoquinoline] | active |  | 
COc1cccc(-c2nc3n(n2)CCc2ccccc2-3)c1 [Example 1, 2-(m-Methoxyphenyl)-5,6-dihydro-s-triazolo[5,1-a]isoquinoline] | active | 0.1 mg/kg | minimal effective dose (female beagle dogs): 12.5 mg/kg
Fc1cccc(-c2nc3n(n2)CCc2ccccc2-3)c1 [Example 19, 2-(m-fluorophenyl)-5,6-dihydro-s-triazolo[5,1-a]isoquinoline] | active |  | 
Cc1cccc(-c2nc3n(n2)CCc2ccccc2-3)c1 [Example 3, 2-(m-toluyl)-5,6-dihydro-s-triazolo[5,1-a]isoquinoline, reference compound] |  | > 10 mg/kg | 
CN(C)c1cccc(-c2nc3n(n2)CCc2ccccc2-3)c1 [Example 41, 2-(m-Dimethylaminophenyl)-5,6-dihydro-s-triazolo[5,1-a]isoquinoline] | active |  | 
c1ccc2c(c1)CCn1nc(-c3ccc4c(c3)OCO4)nc1-2 [Example 16, 2-(3,4-methylenedioxyphenyl)-5,6-dihydro-s-triazolo[5,1-a]isoquinoline] | active |  | 
CN(C)c1ccc(-c2nc3n(n2)CCc2ccccc2-3)cc1 [Example 27, 2-(p-dimethylaaminophenyl)-5,6-dihydro-s-triazolo[5,1-a]isoquinoline] | active |  | 
C=CCOc1cccc(-c2nc3n(n2)CCc2ccccc2-3)c1 [Example 24, 2-(m-allyloxyphenyl)-5,6-dihydro-s-triazolo[5,1-a]isoquinoline] | active | 0.18 mg/kg | minimal effective dose (female beagle dogs): 6.25 mg/kg
CCCOc1cccc(-c2nc3n(n2)CCc2ccccc2-3)c1 [Example 14, 2-(m-propoxyphenyl)-5,6-dihydro-s-triazolo[5,1-a]isoquinoline] | active | 0.11 mg/kg | minimal effective dose (female beagle dogs): 6.25 mg/kg
Oc1cccc(-c2nc3n(n2)CCc2ccccc2-3)c1 [Example 42, 2-(3-Hydroxyphenyl)-5,6-dihydro-s-triazolo[5,1-a]isoquinoline] | active |  | 
C#CCOc1cccc(-c2nc3n(n2)CCc2ccccc2-3)c1 [Example 25, 2-(m-propargyloxyphenyl)-5,6-dihydro-s-triazolo[5,1-a]isoquinoline] | active | 0.21 mg/kg | 
Cc1ccccc1-c1nc2n(n1)CCc1ccccc1-2 [Example 2, 2-(o-toluyl)-5,6-dihydro-s-triazolo[5,1-a]isoquinoline, reference compound] |  | > 10 mg/kg | 
c1cc(OC2CCCC2)cc(-c2nc3n(n2)CCc2ccccc2-3)c1 [Example 23, 2-(m-cyclopentyloxyphenyl)-5,6-dihydro-s-triazolo[5,1-a]isoquinoline] | active |  | 
Clc1cccc(-c2nc3n(n2)CCc2ccccc2-3)c1 [Example 7, 2-(m-chlorophenyl)-5,6-dihydro-s-triazolo[5,1-a]isoquinoline] | active | 0.75 mg/kg | 
